Measurements reported in patent US20240117303A1, “METHODS AND COMPOSITIONS FOR GENERATING HUMAN MIDBRAIN DOPAMINERGIC NEURONS FROM NEURAL PROGENITOR CELLS” (Trailhead Biosystems Inc., priority 2022, published 2024).
Several values for one entry are separate records, joined by “and”; a condition that tells them apart may be missing. Equal values may be shown once. Entries after “also recorded” stand apart in the source; their conditions may differ.

Columns and labels:
stage 3 immature neurons = assay: HD-DoE 8-factor experiment for stage 4 recipe (FIG. 27, 28, 31); assay type: cell-based, human; conditions: for impact on expression of NR4A2: 8-factor model / dynamic profile; for expression level of PITX3 in absence of the factor / expression level of NR4A2 in absence of the factor: stage 4 recipe, other factors present; for expression level of PITX3 in absence of the factor: 40 with all factors; for expression level of NR4A2 in absence of the factor: 400 with all factors
Protocol: To further differentiate the cells to a mature neuronal identity, additional HD-DoE experiments were performed on the cells that were cultured in stage 1, stage 2 and stage 3 differentiation media. After 4 days, gene expression of cells in different combinatorial conditions were investigated. At this time, we focused on maximal expression of more mature dopaminergic genes such as NR4A2, PITX3 and TH (Tiklová et al. (2020) Nat Commun. 11:2434; Fiorenzano et al. (2021) Nat Commun., 12:7302). In one model, cells were treated with a combinatorial matrix with eight inputs including CHIR99021, BDNF, GDNF, Rosiglitazone, GW7647, DBZ and heparin.
(§1) To assess the impact of elimination of each validated factor identified in Example 5 for the stage 3 and stage 4 recipes, we used dynamic profile analysis and compared the expression level of genes of interest in absence of each finalized factor while others are present.
In the stage 4 recipe, each of six finalized factors were excluded while other factors were present and the expression levels of NR4A2 and PITX3 were assessed compared to the presence of all factors.

[1] = test system: stage 1 neural stem cells; assay: HD-DoE 12-factor experiment for stage 2 recipe (second model, FIG. 8-10, 13); assay type: cell-based, human; conditions: for impact on GBX2 / impact on expression of FOXA2 / impact on expression of LMX1A: dynamic profile, 12 effectors; for level of FOXA2 in absence of the factor / level of LMX1A in absence of the factor: stage 2 recipe, second experiment model; for level of LMX1A in absence of the factor: 4000 with all factors
Protocol: To test additional factors like FGF8 that is routinely used in midbrain differentiation protocols, we ran another 12-factor experiment consisting of LDN193189, BMP7, A 83-01, Activin A, Takinib, PD0325901, MK2206, FGF8b, AZD3147, MHY1485, GSI-XX and Yhhu 3792. Similar to the previous experiment, hiPSCs were treated with stage 1 media for 3 days and then treated with 96 conditions of combinations of the factors for an additional 3 days. When this model was optimized for maximum expression of FOXA2, BMP7 with factor contribution of 13.7 and MK2206 with 14.2 had the most impact on its expression followed by AZD 3147 with factor contribution of 10.9.
(§2) To assess the impact of elimination of each validated factor, we used dynamic profile analysis and compared the expression level of genes of interest in absence of each finalized factor while others are present.
(§3) In the stage 2 recipe, each of the six finalized factors were removed while the other five factors were present and the expression levels of FOXA2, LMX1A and GBX2 were assessed, compared to the levels in the presence of all factors. According to the first experiment model, the absence of TTNPB lead to a rise of GBX2 expression, while the value of FOXA2 and LMX1A reduced drastically from 10,000 to 0 and 30,000 to 15,000, respectively. The absence of A 83-01 reduced the expression of FOXA2 from 10,000 to 7000, however, as expected, the value of LMX1A increased from 30,000 to 40,000. […] According to the second experiment model, the absence of BMP7 and MK2206 both reduced the level of FOXA2 while increasing the value of LMX1A, with BMP7 as the main effector that led to 0 expression of FOXA2.

[2] = test system: stage 1 neural stem cells; assay: HD-DoE 12-factor experiment for stage 2 recipe (first model, FIG. 5-7, 12); assay type: cell-based, human; conditions: dynamic profile / model, 12 effectors
Excerpt: To further guide the differentiation of midbrain-committed neural stem cells to neural progenitor cells at stage 2, we performed an additional HD-DoE experiment. We thereby obtained additional gene regulatory models that were used for preparation of differentiation protocol. The basis of this was a 12-factor HD-DoE experiment with focus on initiation of differentiation of cells toward midbrain neural progenitor cells for an additional 3 days after termination of stage 1 treatment. Here, we focused on expression of LMX1A and FOXA2 in neural progenitor cells with low to zero expression of GBX2. LMX1A had significant high expression level in the model with value of 47888. Therefore, we used optimization setting for this gene to identify the positive factors. The factors in this experiment included SC79, MK2206, ZM336372, PD0325901, CHIR99021, A 83-01, TTNPB, AGN193109, GW3965, SR9243, Purmorphamine and GSI-XX.
as §2, §3

[3] = test system: human pluripotent stem cells; assay: HD-DoE 13-factor experiment for stage 1 recipe, gene expression modeled after 3-day treatment; dynamic profile and factor criticality analysis; assay type: cell-based
Excerpt: This example utilizes a method of High-Dimensional Design of Experiments (HD-DoE), as previously described in Bukys et al. (2020) Iscience 23:101346. The method employs computerized design geometries to simultaneously test multiple process inputs and offers mathematical modeling of a deep effector/response space. The method allows for finding combinatorial signaling inputs that control a complex process, such as during cell differentiation. It allows testing of multiple plausible critical process parameters, as such parameters impact output responses, such as gene expression. Because gene expression provides hallmark features of the phenotype of, for example, a human cell, the method can be applied to identify, and understand, which signaling pathways control cell fate. In the current example, the HD-DOE method was applied with the intent to find conditions for induction of midbrain neural progenitor-expressed genes, directly from the pluripotent stem cell state.
To develop the recipe for each stage, the impact of agonists and antagonists of multiple signaling pathways (referred to herein as “effectors”) on the expression of two sets of 53 pre-selected genes after a 3-day treatment was tested and modeled. These effectors are small molecules or proteins that are commonly used during stepwise differentiation of stem cells to specific fates. The choice of the effectors to test was based on current literature on neural induction in the midbrain region of the developing brain and differentiation of stem cells to neural progenitors.
To test the effectors, experiments with at least 8 factors were designed that can assess the response of cells to 48 or more different combinations of effectors in a range of concentrations. To analyze the models, we focused on expression of genes expressed in the midbrain region, including OTX2, DMBX1, FOXA2, LMX1A, and on the absence of GBX2, which is a hindbrain marker. The impact of each effector on gene expression level is defined by a parameter called factor contribution that is calculated for each effector during the modeling.
To identify the recipe of stage 1 of differentiation, cells were treated with various effectors for 3 days and the gene expression of cells was modeled. […] This model consisted of 13 factors including LDN193189, PD173074, BLU9931, Purmorphamine, SC79, MK2206, ZM336372, PD0325901, CHIR99021, XAV939, UCLA-gp130, Tofacitinib and GO 6983.
as §2
In the stage 1 recipe, each of the five finalized factors were removed while the other four factors were present and the expression levels of OTX2, DMBX1, FOXA2 and LMX1A was assessed compared to the levels in the presence of all five factors (FIG. 11A-B). […] Expression level of DMBX1 increased in absence of LDN193189, however values of OTX2, FOXA2 and LMX1A decreased.

[4] = test system: stage 2 neural progenitors; assay: HD-DoE 12-factor model for stage 3 recipe (FIG. 19-23, 29); assay type: cell-based, human
Excerpt: To develop the neuronal differentiation recipes, the impact of various agonist and antagonists (effectors) on maturation of MB neural progenitors was investigated using the HD-DoE method described in Example 1. These effectors were chosen based on available literature on developmental biology, differentiation of stem cells as well as mouse and human single cell RNA-seq data from midbrain neurons at the time.
To engineer the recipe of stage 3 of differentiation, cells were first cultured in the stage 1 and stage 2 media as described herein, then they were treated with combinations of 8 or 12 factors for 3 days and the gene expression of cells in each condition was modeled. To guide the cells towards a subtype of midbrain dopaminergic neurons that reside in Substantia Nigra pars compacta (SNc) region of the brain, neural progenitors need to be SOX6^+ (Pereira et al. (2021) Cell Rep. 37:109975 Oosterveen et al. (2021) Stem Cell Reports 16:2718-2735 Poulin et al. (2020) Trends Neurosci. 43:155-169). CORIN, NGN2 and MSX1 are other markers involved in neurogenesis of dopaminergic neurons originating from floorplate region of developing midbrain (Wang et al. (2020) Cells 9:1489; Samata et al. (2016) Nat Commun. 7:13097; Ono et al. (2007) Development 134:3213-3225; Prakash et al. (2006) J. Physiol. 575:403410).
Therefore, we focused on maximizing expression of SOX6, CORIN, NGN2 and MSX1 in modeling experiments. One of the 12-factor models, the results of which are shown in FIG. 19, including LDN193189, AGN193109, BMP7, TTNPB, PD0325901, A8301, MHY1485, CHIR99021, XAV939, SANT-1, Purmorphamine and MK2206, provided a combination set that could maximize expression level of CORIN to more than 2000.
as §1
In the stage 3 recipe, each of the finalized factors were removed in their respective models while other factors were present and the expression level of genes of interest was assessed compared to presence of all factors. When AGN193109 was excluded, level of all CORIN, KCNJ6, MSX1 and SOX6 decreased from 900 to 450, 50 to 35, 140 to 110 and 105 to 60, respectively. […] When PD0325901 was removed, expression levels of CORIN and KCNJ6 increased to 1200 and 70 while levels of MSX1 and SOX6 decreased to 105 and 20. In the absence of CHIR99021, the expression level of CORIN was again increased to 1200 while the level of KCNJ6 and MSX1 dropped to 50 and 115. […] Therefore, it was decided to include this compound in the final recipe. […] Therefore, CHIR99021 was also included in the final recipe.

[5] = model optimized for maximum expression of FOXA2, positive impact

NCCc1ccc(O)c(O)c1 [Dopamine]
impact on expression of NR4A2 (stage 3 immature neurons): positive regulatory impact | expression level of PITX3 in absence of the factor (stage 3 immature neurons): 20 | expression level of NR4A2 in absence of the factor (stage 3 immature neurons): ~0

CC(C)(Sc1ccc(CCN(CCCCC2CCCCC2)C(=O)NC2CCCCC2)cc1)C(=O)O [GW7647]
impact on expression of NR4A2 (stage 3 immature neurons): positive regulatory impact | expression level of PITX3 in absence of the factor (stage 3 immature neurons): lower expression levels | expression level of NR4A2 in absence of the factor (stage 3 immature neurons): lower expression levels

NC1(c2ccc(-c3nc4ccn5c(=O)[nH]nc5c4cc3-c3ccccc3)cc2)CCC1 [MK2206]
impact on GBX2 [1]: desirable impact | impact on expression of FOXA2 [1]: desirable impact; also recorded: positive impact | impact on expression of LMX1A [1]: decreases | factor contribution [1, 5]: 14.2 | factor contribution ([1]; model optimized for maximum expression of LMX1A, positive impact): 12 | level of FOXA2 in absence of the factor [1]: reduced | level of LMX1A in absence of the factor [1]: increasing | impact on expression of FOXA2 [2]: positive impact | impact on expression of OTX2 ([3]; dynamic profile, 13 effectors): positive impact | factor contribution ([3]; model optimized for maximum expression of OTX2, positive impact, 3-day treatment): 22.3 | expression level of LMX1A in absence of the factor ([3]; stage 1 recipe, other four factors present, 300 with all five factors): stayed the same | expression level of FOXA2 in absence of the factor ([3]; stage 1 recipe, other four factors present, 600 with all five factors): stayed the same | expression level of DMBX1 in absence of the factor ([3]; stage 1 recipe, other four factors present, 3000 with all five factors): 1500 | expression level of OTX2 in absence of the factor ([3]; stage 1 recipe, other four factors present, 12000 with all five factors): 9500

CN(CCOc1ccc(CC2SC(=O)NC2=O)cc1)c1ccccn1 (stereo not drawn) [Rosiglitazone]
factor contribution (stage 3 immature neurons; model maximized for NR4A2, negative impact): 13.6

COc1cccc(Oc2cccc3nc(Nc4ccc(C(C)C)cc4)nc(N)c23)c1 [Yhhu 3792]
impact on GBX2 [1]: positive effect | impact on expression of LMX1A [1]: considerable negative effect | factor contribution ([1]; model optimized for LMX1A, negative impact): 11.7

heparin
impact on expression of NR4A2 (stage 3 immature neurons): positive regulatory impact | expression level of PITX3 in absence of the factor (stage 3 immature neurons): 30 | expression level of NR4A2 in absence of the factor (stage 3 immature neurons): did not significantly change

B1: BMP7: BMP agonist (protein, UniProt P18075 293-431, looked up)
Bone morphogenetic protein 7: STGSKQRSQNRSKTPKNQEALRMANVAENSSSDQRQACKKHELYVSFRDLGWQDWIIAPEGYAAYYCEGECAFPLNSYMNATNHAIVQTLVHFINPETVPKPCCAPTQLNAISVLYFDDSSNVILKKYRNMVVRACGCH
impact on expression of FOXA2 [1]: significant positive impact | impact on expression of LMX1A [1]: did not reduce | factor contribution [1, 5]: 13.7 | level of FOXA2 in absence of the factor [1]: 0 | level of LMX1A in absence of the factor [1]: increasing | factor contribution ([4]; model maximizing expression of CORIN, positive regulatory impact): high positive factor contributions | factor contribution ([4]; model optimized for maximum expression of KCNJ6, positive regulators): low factor contributions | factor contribution ([4]; model optimized for maximum expression of MSX1, positive impact): 11.1 and 11.06 | expression level of KCNJ6 in absence of the factor ([4]; stage 3 recipe, other factors present, 50 with all factors): did not have a significant change | expression level of SOX6 in absence of the factor ([4]; stage 3 recipe, other factors present, 105 with all factors): did not have a significant change | expression level of MSX1 in absence of the factor ([4]; stage 3 recipe, other factors present, 140 with all factors): 100 | expression level of CORIN in absence of the factor ([4]; stage 3 recipe, other factors present, 900 with all factors): 500
